How the values were obtained:
H524 cells = experiment: Seahorse XF Cell Energy Phenotype Test; format: cell-based; settings: LB100 2.5 μM
Method: FIGS. 5A-5F depict the effect of LB-100 on cell energy phenotype in SCLC cells. FIG. 5A: LB100 treatment (2.5 μM) induced metabolic switch in H524 cells. Cell energy phenotype was obtained by using XF Cell Energy Phenotype Reporter Generator. Empty squares indicate baseline energy phenotype, solid squares represent stressed energy phenotype measured after oligomycin/FCCP injection. FIGS. 5B and 5C: OCR and ECARin control (blue circles) and LB-100 (orange circles) H524 cells were measured overtime. (n=2, six different wells for each […]). FIG. 5D: Effect of LB-100 (10 μM) on H69 cell energy phenotype. FIGS. 5E and 5F: Effect of mitochondrial stressor on OCR and ECAR in H69 cells. Blue circles indicate control and orange circles show LB-100 treatment. (n=2, six technical replicates).
Next, we determined the effect of LB100 on ATP production in SCLC cells employing the Seahorse XF Cell Energy Phenotype Test. […] After drug treatment, we counted the number of cells and examined them for viability using exclusion of trypan blue as a readout. Cellular basal oxygen consumption rate (OCR) and extra-cellular acidification rate (ECAR) measurements were determined on a Seahorse XF96 analyzer. […]

H446 spheroids = H446 spheroids with drugs and T cells, live imaging; format: cell-based; settings: without T cells, 48 h
Method: FIGS. 7A-7G depict results of T cells infiltration in H446 spheroids in the presence of LB100 and atezolizumab. FIG. 7A: Schematic of the effect of activated T cells on H446 spheroid degradation. At time point 0, single spheroids in 96 well plate were treated with LB-100, atezolizumab and T cells. Beads mimic in vivo T cell activation by two action signals CD3 and CD28. IncuCyte® Live-Cell Analysis System was used for the spheroidal imaging. Right panel presents spheroidal degeneration after 48 h incubation with LB-100, atezolizumab and activated T cells. FIGS. 7B and 7C: Automated image analysis provides metrics (0 h-μm, […]) and spheroid area (yellow-bright field mask). Column bars present mean values of spheroids at 0h. Representative images in bright field mask. […]
Cytotoxic CD8+ cells were isolated from whole blood, buffy coat of healthy donors following the protocol described in the Methods. […] Spheroid survival was monitored for 48 hours and their diameters were measured from phase contrast images. […]
H446 were generated as described in Materials and Methods (Monitoring of spheroid growth and cytotoxicity with the IncuCyte® Live-Cell Analysis System and IncuCyte® Cytotox reagent) following incubation with T cells and drugs. The effect of LB100 and atezolizumab in the presence of T cells was monitored with IncuCyte 3D Multi-Tumor Spheroid assay.

H82 cells = experiment: Cell Counting Kit-8 cytotoxicity, H82; settings: read-out: Cytotoxicity IC50; H82; 72 hours
Text: To determine specific cytotoxicity, we used Cell Counting Kit-8 (Dojindo Molecular Technologies, Rockville, Md.) as previously described (50).

C[NH+]1CCN(C(=O)C2C(C(=O)O)[C@H]3CC[C@@H]2O3)CC1 (stereo in doubt) [LB-100, 3-[(4-Methylpiperazin-1-yl)carbonyl]-7-oxabicyclo[2.2.1]heptane-2-carboxylic acid]
basal OCR lower compared to untreated cells (H524 cells): 4 fold
effect on spheroids (degeneration), drug alone (H446 spheroids): moderate effect

N.N.O=C([O-])C1(C(=O)[O-])CCC1.[Pt+2] [Carboplatin, reference compound]
IC50 (H82 cells): 46.5 µM
